We go through 91 compounds from PubChem BioAssay AID1249 (Columbia University Molecular Screening Center, 2008).

The source made the active and inactive calls. How the calls were made is not given here.

The assay can be described thus: modifiers of cytoskeleton assembly, confirmation, imaging, high-content imaging, retest and dose response (AID 1249).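 Further: compound exposure lasted 24 h before fixation; plate controls were untreated cells for no effect and reference compound treated cells for full effect.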 The following applies: cell-based imaging, cytoskeleton assembly phenotype, high content; at 2 µM; stronger effect = higher value.
In the case of `COc1ccccc1-c1cc(C(F)(F)F)nc(S(=O)(=O)CCCC(=O)N2CCCCC2C)n1` (stereo unspecified), the inhibition (usually the drop in the measured response relative to a control, in per cent) is 7.4% (inactive).

Regarding `CC(=O)Nc1nc2n(n1)C(c1ccc(F)cc1)C=C(c1ccccc1)N2` (stereo unspecified), the inhibition is 13.3% (inactive).

Turning to `COC1(c2ccccc2)NC(=S)NN=C1c1ccccc1` (stereo unspecified), the inhibition is -7.4% (inactive).

With `C=C1N2CCC(CC2)C1(O)c1ccccc1C` (stereo unspecified), the inhibition was -0.8% (inactive).

On to `Cc1cc(NC(=O)CSc2nc(-c3cccs3)cc(C(F)(F)F)n2)no1`, for which the inhibition is -6.4% (inactive).

Consider `Cc1cc(C)cc(OCCCCCNCCO)c1`, for which the inhibition is -6.8% (inactive).

As for `N#Cc1cc2c(nc1SCC(=O)N1CCCCC1)CCCC2`, the inhibition is 2.1% (inactive).

With `Cc1ccc(O)c(NC(=O)CCC2CCCCC2)c1`, the inhibition is -15.6% (inactive).

Take `O=C(/C(=C/c1ccc(Cl)cc1)c1nc2ccccc2[nH]1)c1cccs1`: the inhibition was -2.9% (inactive).

Regarding `Cc1cc(C)n(C(=O)c2ccc(NC(=O)C3COc4ccccc4O3)cc2)n1` (stereo unspecified), the inhibition was 1.1% (inactive).

For `COc1ccc(NC(=O)C(NC(=O)c2ccccc2)C(C)C)cc1` (stereo unspecified), the inhibition was 4.5% (inactive).

For `Cn1c(NCc2c[nH]c3ccccc23)nc2ccccc21`, the inhibition was -13.6% (inactive).

In the case of `CN1C(=O)N(C)C(=O)C2(Cc3ccccc3N3CCOCC32)C1=O` (stereo unspecified), the inhibition is -1.2% (inactive).

As to `CC(=O)c1c(C(C)=O)c(C)n(NC(=O)c2ccccc2O)c1C`, the inhibition is -15.8% (inactive).

Turning to `CC(C)CN(C(=O)COC(=O)CCc1c[nH]c2ccccc12)C1CCS(=O)(=O)C1` (stereo unspecified), the inhibition was -23.6% (inactive).

Consider `Oc1ccc(N2CCN(c3ncnc4sc5c(c34)CCC5)CC2)cc1`, for which the inhibition was -5.1% (inactive).

For the compound `O=C(O)Cc1ccc(NC(=O)C2CC=CCC2C(=O)O)cc1` (stereo unspecified), the inhibition is -9.1% (inactive).

With `CCC(C)[C@@H](NC(=O)OC(C)(C)C)c1nnc(S(=O)(=O)Cc2cccc(C)c2)o1` (stereo partly specified), the inhibition is 1.2% (inactive).

With `C=CCOc1c2ccc(C(=O)NCc3ccccc3OC)cc2nn1C`, the inhibition was -6.1% (inactive).

In the case of `CCc1nnc(NC(=O)C2c3ccccc3Oc3ccccc32)s1`, the inhibition was 2.3% (inactive).

For the compound `OCCN=C(c1ccccc1)C12CN3CN(CN(C3)C1)C2`, the inhibition was -2.8% (inactive).

In the case of `Cc1cc(C)c(/C=N/NC(N)=O)c(C)c1/C=N/NC(N)=O`, the inhibition was -10% (inactive).

Consider `CCOc1ccccc1N1CCN(C(=O)c2cccc(-c3ccc(O)cc3)c2)CC1`, for which the inhibition was 6.2% (inactive).

`O=C(Nc1cccnc1)c1coc(=O)c2ccccc12`: the inhibition was 8% (inactive).

Turning to `CCOC(=O)C1C(=O)NC(N2CCCCC2)=NC1c1ccco1` (stereo unspecified), the inhibition was -0.9% (inactive).

For the compound `COc1ccc(-c2n[nH]c(=S)n2C2CCCCC2)cc1`, the inhibition is 5.3% (inactive).

On to `CC(N)Cc1ccccc1Sc1ccc(O)cc1` (stereo unspecified), for which the inhibition is 5.2% (inactive).

As to `O=C(NCc1ccncc1)c1ccc(Br)cc1`, the inhibition is 0.2% (inactive).

Consider `CC(C)C(=O)Nc1ccc(C(=O)NNC(=O)NC2CCCCC2)cc1`, for which the inhibition was -9.2% (inactive).

As to `O=C(CS(=O)(=O)c1cn(Cc2cccc(F)c2)c2ccccc12)N1CCCCC1`, the inhibition was -1.5% (inactive).

Turning to `C=C(C)c1cccc(C(C)(C)NC(=O)Nc2ncccn2)c1`, the inhibition is 1.8% (inactive).

As to `COc1ccc(-c2cc(=O)[nH]c(NCc3ccccc3)n2)cc1`, the inhibition was -1.7% (inactive).

`COC(=O)CSc1nc2nc(C)c(Br)cc2[nH]1`: the inhibition was 1.5% (inactive).

Consider `O=S(=O)(c1ccc(Cl)c(Cl)c1)c1snnc1-c1ccccc1`, for which the inhibition was 5.7% (inactive).

`N#CCc1nc2c3c4c(sc3ncn2n1)CCCC4`: the inhibition was -15.1% (inactive).

For `C=CC(=O)Nc1ccc(Br)cc1`, the inhibition is -1.2% (inactive).

Consider `Cc1ccc(OCC(O)CNS(=O)(=O)c2ccccc2C(=O)N2CCCCC2)cc1` (stereo unspecified), for which the inhibition is -15.6% (inactive).

With `O=S(=O)(Nc1ccc(-n2cccc2)cc1)c1ccccc1`, the inhibition is 0.5% (inactive).

For `Cc1ccc(Cl)cc1N1CCN(C(c2cccnc2)c2nnnn2C2CCCCC2)CC1` (stereo unspecified), the inhibition was 12.1% (inactive).

Take `Cc1cccc(NC(=O)CC2SC(=O)N(c3ccccc3)C2=O)c1` (stereo unspecified): the inhibition was 1.5% (inactive).

As to `Fc1ccc(-n2[nH]nnc2=S)cc1N1CCCC1`, the inhibition is 10.6% (inactive).

Take `Cc1ccc(S(=O)(=O)Cn2nnnc2C(C(C)C)N2CCN(c3nc4ccccc4s3)CC2)cc1` (stereo unspecified): the inhibition is 4.2% (inactive).

On to `COc1ccc(N2CCN(C(=O)CSc3nnc4c(C)cc5cc(C)ccc5n34)CC2)cc1`, for which the inhibition is 3.6% (inactive).

As to `CN(C)c1cccc(C(=O)Nc2ccc(N3CCOCC3)cc2)c1`, the inhibition was -5.4% (inactive).

For the compound `CCOC(=O)Cc1csc(SCC(=O)/C(C#N)=C(\C)N)n1`, the inhibition was -9.5% (inactive).

Consider `CCOc1ccc(N2C(=O)CSC2c2ccncc2)cc1` (stereo unspecified), for which the inhibition was 4.4% (inactive).

On to `CCOC(=O)c1ccc(NC(=O)CCNc2c(N3CCCC3)c(=O)c2=O)cc1`, for which the inhibition is 1.6% (inactive).

In the case of `C=CCn1c(N)c(C(=O)OCC(C)C)c2nc3ccccc3nc21`, the inhibition is -0.2% (inactive).

On to `O=C(NCCO)C(c1ccccc1)c1ccccc1`, for which the inhibition is 3.5% (inactive).

`CCN1CCN(CC(=O)Nc2nc3ccc(OC)cc3s2)CC1`: the inhibition was -8.7% (inactive).

In the case of `C/C(=N\O)c1ccc2c3ccccc3n(C)c2c1`, the inhibition was -20.9% (inactive).

Consider `Cn1nc(C(=O)NCC2CCCO2)c2ccccc2c1=O` (stereo unspecified), for which the inhibition was 0% (inactive).

Consider `CCOc1cc(/C=N\NC(=O)Cc2ccccc2)ccc1OCC(=O)Nc1ccc(C)c(C)c1`, for which the inhibition was -0.8% (inactive).

`CCCCCCCC(=O)N/N=C(\C)c1cccnc1`: the inhibition is 2.2% (inactive).

On to `COc1cccc(C(C#N)N2CCCCC2)c1O` (stereo unspecified), for which the inhibition was 1.4% (inactive).

For the compound `COc1ccc(N2C(=O)CC(NC3CCCCNC3=O)C2=O)cc1` (stereo unspecified), the inhibition was -8.6% (inactive).

As to `Cc1nc(NC(C)C)c2oc3ccccc3c2n1`, the inhibition was 4.2% (inactive).

Turning to `O=C(Nc1ccccc1)/C(=C\c1ccc2c(c1)OCO2)NC(=O)c1ccco1`, the inhibition was -0.8% (inactive).

Regarding `COc1ccccc1-n1cnc2cc(C(=O)NCC3CCCO3)ccc21` (stereo unspecified), the inhibition is 13.3% (inactive).

Turning to `Cc1ccccc1NC1=C/C(=N\S(=O)(=O)c2cccs2)c2ccccc2C1=O`, the inhibition is -3.8% (inactive).

Regarding `O=C(NC(NC1CCS(=O)(=O)C1)C(=O)c1cccs1)c1ccccc1` (stereo unspecified), the inhibition was 6.8% (inactive).

For the compound `COc1cc2c(cc1OC)/C(=C/C#N)NC(C)(C)C2`, the inhibition is 1.8% (inactive).

Take `NC(=S)N/N=C/c1ccc(-c2cc(Cl)ccc2Cl)o1`: the inhibition is -7.4% (inactive).

Turning to `CC(C)c1nnc(NC(=O)CCC(=O)N2CCN(C3CCCCC3)CC2)s1`, the inhibition is 3.6% (inactive).

Take `Cc1ccc(-c2nc(NC(=O)c3nn(C)cc3[N+](=O)[O-])sc2C)cc1`: the inhibition is 5.1% (inactive).

Consider `NC(=O)c1c(NC(=O)Cc2cccs2)sc2c1CCC2`, for which the inhibition is 6.6% (inactive).

Regarding `COc1ccc(NC(=O)N(Cc2ccc3c(c2)OCO3)C2CC(=O)N(c3ccc(OC)cc3)C2=O)cc1` (stereo unspecified), the inhibition was -22.4% (inactive).

For the compound `Cc1cc(NC(=O)NC(=O)c2cccc(OC(F)(F)C(F)F)c2)n[nH]1`, the inhibition was -2.9% (inactive).

`Oc1ccc(Nc2nc(-c3ccc4ccccc4c3)cs2)cc1`: the inhibition was -9.7% (inactive).

Take `CC(=O)c1c(C)oc2ccc(N(C(C)=O)S(=O)(=O)c3ccc(Cl)c([N+](=O)[O-])c3)cc12`: the inhibition was -11.2% (inactive).

For `CSc1nc2nccc(-c3ccc(Oc4ccccc4)cc3)n2n1`, the inhibition was -15.1% (inactive).

`CCOC(=O)c1ccc(NS(=O)C23CC4CC(CC(C4)C2)C3)cc1` (stereo unspecified): the inhibition was -10.9% (inactive).

Take `Cc1ccc(C(=O)CSc2nnc(COc3ccc(C#N)cc3)n2-c2ccccc2)cc1`: the inhibition was -3% (inactive).

Consider `Cc1cc(N2CCC(C)CC2)nc(-n2nc(C)cc2C)n1`, for which the inhibition is 4.7% (inactive).

With `Cc1ccc(N/N=C/c2ccc(N3CCOCC3)cc2)cc1C`, the inhibition was -7.8% (inactive).

`O=S(=O)(c1ccc2c(c1)OCCCO2)N1CCNCC1`: the inhibition is 0.7% (inactive).

For the compound `COc1cc(/C=C(/C#N)C(=O)NCCc2c[nH]c3ccccc23)ccc1OCc1ccccc1F`, the inhibition is 2.3% (inactive).

As to `Cc1cc(OCc2ccc(F)cc2)nc(-c2ccccc2O)n1`, the inhibition was 2.1% (inactive).

Take `CC(=O)Nc1ccc(NC2(C)C(=O)c3ccccc3C2=O)cc1`: the inhibition was 0.7% (inactive).

Consider `O=S(=O)(c1cccc(-n2cnnn2)c1)N1CCOCC1`, for which the inhibition is -4.7% (inactive).

Regarding `CSC1=NCCN1C(=O)Cc1ccc(Cl)cc1`, the inhibition was 3% (inactive).

As for `COC(=O)c1ccc(CSc2nnc(-c3ccncc3)n2Cc2ccccc2)o1`, the inhibition is 1.6% (inactive).

Turning to `Cc1nc([N+](=O)[O-])c(Br)n1CC(=O)c1ccc(Br)cc1`, the inhibition was -7.3% (inactive).

Regarding `Nc1nnnn1/N=C/C(Br)=C/c1ccccc1`, the inhibition is 1.2% (inactive).

As to `N=c1nc(N)nc2n1NC(c1ccc(F)cc1)=CS2`, the inhibition is -1.7% (inactive).

With `Cc1ccc(CNC(=O)Cn2ccc3ccccc3c2=O)o1`, the inhibition is -10.7% (inactive).

Turning to `N/C(Cc1cccs1)=N\OC(=O)COc1ccc(Br)cc1Cl`, the inhibition is -3.7% (inactive).

Turning to `COCCCNC(=S)NC1CC2CCCC(C1)N2Cc1ccco1` (stereo unspecified), the inhibition was 4.7% (inactive).

As for `CCCn1nc([N+](=O)[O-])c(C(C#N)c2nc3ccccc3s2)c(Cl)c1=O` (stereo unspecified), the inhibition is 1.3% (inactive).

As for `OC(c1ccccn1)c1c[nH]c2ccccc12` (stereo unspecified), the inhibition is 14.9% (inactive).

On to `O=C(O)c1cccc(S(=O)(=O)Nc2ccccc2Cl)c1`, for which the inhibition was -2.5% (inactive).
